# Patent US20240116990A1, “Compositions and Methods of Treatment Using CRRL 191” (Mayo Foundation for Medical Education and Research, priority 2022, published 2024)
# Bridge positions count the residues as written; N and C are the ends.
# Legend:
# [1] = target: recombinant human neprilysin (NEP) (Homo sapiens, UniProt P08473); assay: In vitro neprilysin degradation assay (residual cGMP generation in HEK/GCA cells); conditions: for original bioactivity retained: 37° C.
# Protocol: Briefly, 5 μl of 2×10^−5 M peptide is incubated with 5 μl (10 ng/μl) recombinant NEP in 90 μl Tris/0.1% BSA buffer (50 mM Tris-HCl, pH 7.5, 150 mM NaCl, 5 mM MgCl2, 0.1% BSA) at 37° C. for various lengths of time ranging from 15 min to 24 hours. Peptides for the 0-min timepoint are incubated without NEP (buffer only). After incubation for the required length of time (0-min to 24-hour), 100 μl of 0.5 N perchloric acid is added to the reaction solution to inactivate NEP and stop degradation, and 20 μl of 2.5 N NaOH is added to neutralize the solution. The neutralized reaction aliquot is added to HEK/GCA cells and the residual capability of the undegraded peptide (diluted to a final concentration 5.5×10^−8 M) to produce cGMP is measured using the same commercial cGMP ELISA kit (Enzo Life Sciences, Farmingdale, NY) as described in Example 2, following the instructions of the manufacturer.
# physchem = conditions: water
# [2] = target: T1, extracellular domain of GC-A recombinant protein (Homo sapiens, UniProt P16066); assay: GC-A binding by surface plasmon resonance (SPR); conditions: SPR binding curves, FIG. 7
# T1 construct: The extracellular domain of GC-A recombinant protein with a C-terminal His-tag (MyBioSource, Inc., San Diego, CA); purchased MyBioSource, Inc., San Diego, CA
# T1 sequence (P16066 33-473 limits assumed): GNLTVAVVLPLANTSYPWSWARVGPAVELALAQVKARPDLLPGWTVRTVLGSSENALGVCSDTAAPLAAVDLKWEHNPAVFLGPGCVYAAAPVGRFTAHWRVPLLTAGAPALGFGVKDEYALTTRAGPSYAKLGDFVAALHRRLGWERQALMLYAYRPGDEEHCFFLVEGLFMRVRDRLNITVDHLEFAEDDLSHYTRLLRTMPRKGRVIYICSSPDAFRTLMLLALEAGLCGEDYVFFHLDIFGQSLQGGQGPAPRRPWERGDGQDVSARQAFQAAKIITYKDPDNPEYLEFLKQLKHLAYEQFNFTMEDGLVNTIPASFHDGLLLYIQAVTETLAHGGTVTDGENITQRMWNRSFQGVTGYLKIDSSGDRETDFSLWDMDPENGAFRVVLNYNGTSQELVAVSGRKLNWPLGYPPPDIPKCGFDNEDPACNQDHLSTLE
# Protocol: Surface plasmon resonance (SPR) measurements are performed at 25° C. on a BI-4500 SPR instrument (Biosensing Instrument Inc., Tempe, AZ). The extracellular domain of GC-A recombinant protein with a C-terminal His-tag (MyBioSource, Inc., San Diego, CA) is immobilized onto a Ni-NTA sensor chip (Biosensing Instrument Inc., Tempe, AZ) using 400 μM nickel sulfate in de-iron water as linker, as instructed by the instrument manual. Then, 40 μg/ml of recombinant GC-A is immobilized on the Ni-NTA sensor chip. […] Data are collected as sensorgrams. Binding kinetics are calculated from sensorgrams using the BI-Data Analysis Program (Biosensing Instrument, Tempe, AZ).
# [3] = test system: Spontaneously Hypertensive Rats (SHR); assay: Blood pressure in spontaneously hypertensive rats during infusion and washout; format: in vivo, rat; conditions: 100 pmol/kg and 300 pmol/kg doses
# Protocol: All rat experiments are conducted following the Animal Welfare Act and the protocol is approved by the Mayo Clinic Institutional Animal Care and Use Committee (IACUC). […] Rats are included only if they are deemed healthy by the Institutional Veterinarian Department. Investigators who conduct the in vivo study are not blinded to treatments, but biochemical analysis is performed by a different investigator who is blinded to treatment.
# On the day of the experiment, SHR rats are anesthetized with inactin (120 mg/kg, intraperitoneal injection, Sigma, St. Louis, MO). Rats are then kept on a heating pad at 38° C. to maintain a normal body temperature for the entire study. Vascular and bladder cannulation procedures are conducted. Briefly, a polyethylene-50 (PE-50) tube catheter is placed into one jugular vein for peptide infusion and another PE-50 tube is placed into the carotid artery for blood pressure (BP) monitoring (Sonometrics, London, Ontario, Canada) and blood sampling. After instrumentation, a 15-minute equilibrium period follows, and a 30-minute pre-infusion period is performed to collect baseline urine samples.
# Four blood samples are collected to determine circulating cGMP levels: at baseline, before the end of drug infusion, at the middle of the washout clearance period, and before the end of the washout clearance period. Any blood loss in the rats is replaced with an equal volume of saline. BP is monitored and recorded every 15 minutes beginning after the initiation of peptide infusion. All collected blood are stored at −80° C. until assayed.
# [4] = test system: Human cardiomyocytes (HCM); assay: Human cardiomyocyte (HCM) cGMP analysis; format: cell-based
# Protocol: Human cardiomyocytes (HCM) are purchased from ScienCell (Catalog #6200) and maintained in Cardiac Myocyte Medium (Cat #6101, ScienCell) containing 10% FBS. An in vitro cGMP assay is performed. Briefly, HCM cells are seeded in 6-well plates and cultured overnight to 80-90% confluency. The treatment buffer used in all experiments comprises Hank's Balanced Salt Solution (HBSS), 0.1% BSA, 2 mM HEPES, and 0.5 mM 3-isobutyl-1-methylxanthine (IBMX, a non-specific phosphodiesterase inhibitor) (Sigma, St. Louis, MO). […] For the negative control, HCM are incubated in treatment buffer (vehicle) only. After treatment for 10 minutes, all cells are washed with phosphate buffered solution (PBS) once, lysed with 0.1 M HCl, and sonicated for 10 min.
# Chain of recombinant human neprilysin (NEP) (P08473 whole entry): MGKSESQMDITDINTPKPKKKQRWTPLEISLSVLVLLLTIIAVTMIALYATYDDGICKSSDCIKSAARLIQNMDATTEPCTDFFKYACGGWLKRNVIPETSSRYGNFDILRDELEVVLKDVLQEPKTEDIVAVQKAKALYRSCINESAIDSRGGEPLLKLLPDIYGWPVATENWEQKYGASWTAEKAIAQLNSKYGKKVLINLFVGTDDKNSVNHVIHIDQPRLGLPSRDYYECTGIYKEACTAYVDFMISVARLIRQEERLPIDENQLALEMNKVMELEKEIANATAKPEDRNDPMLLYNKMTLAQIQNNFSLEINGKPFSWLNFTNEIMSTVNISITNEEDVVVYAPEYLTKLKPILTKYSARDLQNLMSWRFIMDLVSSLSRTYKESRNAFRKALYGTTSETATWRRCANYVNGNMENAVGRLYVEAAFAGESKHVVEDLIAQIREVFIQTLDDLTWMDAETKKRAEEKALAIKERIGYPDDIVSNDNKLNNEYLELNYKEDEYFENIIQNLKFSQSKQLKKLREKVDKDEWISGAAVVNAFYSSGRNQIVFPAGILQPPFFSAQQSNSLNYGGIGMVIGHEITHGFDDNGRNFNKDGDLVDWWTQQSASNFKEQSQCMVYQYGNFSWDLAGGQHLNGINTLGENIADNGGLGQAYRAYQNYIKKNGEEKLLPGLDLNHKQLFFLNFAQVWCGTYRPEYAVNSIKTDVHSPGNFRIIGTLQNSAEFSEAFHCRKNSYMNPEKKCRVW
substance,measurement,setting,value
H-RALLTAPRSLRRSSCFGHKIDRINHVSNLGCNSFRYRITAREDKQGWA-OH (disulfide 15-31) [CRRL 191],resistance to degradation by neprilysin compared to ANP,[1]; FIG. 3,highly resistant
same,original bioactivity retained,[1]; after 30 minutes of neprilysin degradation,about 90%
same,original bioactivity retained,[1]; after 6 hours of neprilysin degradation,84%
same,solubility,physchem,≥ 1000 µg/mL
same,binding for the GC-A receptor compared to ANP and MANP,[2],greater binding
same,lowering systolic blood pressure compared to ANP,"[3]; iv infusion, FIG. 8A",more effective at lowering
same,lowering diastolic blood pressure compared to ANP,"[3]; iv infusion, FIG. 8B",more effective at lowering
same,lowering mean arterial blood pressure compared to ANP,"[3]; iv infusion, FIG. 8C",more effective at lowering
same,duration of blood pressure effect after peptide administration compared to ANP,[3]; washout,more sustained effect over time
same,cGMP production compared to MANP or CRRL 101,"[4]; 10^−9 M to 10^−6 M, FIG. 5",great levels of cGMP production than MANP or CRRL 101
same,cGMP production compared to ANP,"[4]; 10^−10 M to 10^−6 M, 10 min, FIG. 4",greater cGMP production than ANP
